Reference: US11129801B2 (SigmaThera SAS, priority 2016, dated 2021)
Several values for one entry are separate records, joined by “and”; a condition that tells them apart may be missing. Identical values can stand only once.

What was measured:
[1] = system: Aβ25-35 mouse model of Alzheimer's disease; test: Spontaneous alternation in the Y-maze, Aβ25-35 mouse model; assay type: in vivo
Method: (§1) The compound efficacy was evaluated 7 days after the peptide administration on the attenuation of the Aβ25-35-induced learning deficits (spatial working memory using the spontaneous alternation in the Y-maze test, and contextual long-term memory using the passive avoidance test).
(§2) The mice were tested 7 days post injection or at the indicated time points.
(§3) In Experiment 2, twelve mice per experimental group were administered Sc.Aβ or Aβ25-35-amyloid peptide on day 0 by i.c.v. injection. […] Animals were tested at day 7 and later.
The synergy/additivity/antagonism was evaluated by calculating the combination index. […] Animals were then tested at day 7 and later.
Animals were tested at day 7 and later.
(§4) For each of Experiments 1-4, on day 7, all animals were tested for the spontaneous alternation performance in the Y-maze test, an index of spatial working memory. On day 8 and 9, the contextual long-term memory of the animals was assessed using the step-through type passive avoidance procedure. On day 9, immediately after the retention session, animals were sacrificed by decapitation and the hippocampus and cortex dissected out. Lipid peroxidation was analyzed in the hippocampus, whereas neuroinflammation, apoptosis, amyloid burden and hyperphosphorylation of tau protein were analyzed in cortex.
(§5) The homogeneous oligomeric preparation of Aβ25-35 peptide was performed according to the AMYLGEN's own procedure. Each mouse was anesthetized with isoflurane 2.5% and injected i.c.v. with Aβ25-35 peptide (9 nmol/mouse) or Sc.Aβ peptide (9 nmol/mouse), in a final volume of 3 μl/mouse, according to the previously described method (Maurice T, et al. (1996). Brain Res. 706(2): 181-193, Maurice T, et al. (1998) Neuroscience 83(2): 413-428, Meunier J, et al. (2006) British J. Pharmacol. 149(8): 998-1012, Villard V, et al. (2009) Neuropsychopharmacology 34(6): 1552-1566, Villard V, et al. (2011) J. Pharmacol. Sci. 115(3): 279-292).
(§6) Animals: Male Swiss mice, 6 weeks old and weighing 30-35 g, from JANVIER (Saint Berthevin, France), were kept for housing and experiments took place within the animal facility building of the University of Montpellier 2 (CECEMA, Office of Veterinary Services agreement #B-34-172-23). Animals were housed in groups with access to food and water ad libitum, except during behavioral experiments. They were kept in a temperature and humidity controlled animal facility on a 12 h/12 h light/dark cycle (lights off at 07:00 pm). Mice were numbered by marking their tail using permanent markers. All animal procedures were conducted in strict adherence to the European Union directive of Sep. 22, 2010 (2010/63/UE). Diagnostic summary reports of JANVIER were annexed to the study report.
Spontaneous alternation performance: Immediate working memory performance was assessed by recording spontaneous alternation behavior during a single session in a Y-maze as described previously (Itoh J, et al. (1993) Eur J Pharmacol 236(3): 341-345; Hiramatsu M and Inoue K (1999) Br J Pharmacol 127(3): 655-660). The Y-maze is made of grey polyvinylchloride. Each arm of the Y-maze was 40 cm long, 3 cm wide, and 13 cm high at the bottom, 10 cm wide at the top, and converging at an equal angle. Each mouse was placed at the end of one arm and allowed to move freely through the maze during an 8 min session. The series of arm entries, including possible returns into the same arm, was checked visually. An alternation was defined as entries into all three arms on consecutive occasions. The number of maximum alternations is therefore the total number of arm entries minus two and the percentage of alternation was calculated as (actual alternations/maximum alternations)×100. Parameters included the percentage of alternation (memory index) and total number of arm entries (exploration index).

[2] = system: Aβ25-35 mouse model of Alzheimer's disease; test: Step-through passive avoidance test, Aβ25-35 mouse model; assay type: in vivo
Method: as §1, §2, §3
Each of these doses was, by itself, unable to produce any protective effect. The synergy/additivity/antagonism was evaluated by calculating the combination index. […] Animals were then tested at day 7 and later.
as §4, §5
as §6, with “Mice were numbered by marking their tail using permanent markers. All animal procedures were conducted in strict adherence to the European Union directive of Sep. 22, 2010 (2010/63/UE). Diagnostic summary reports of JANVIER were annexed to the study report.” left out
Passive avoidance test: The passive avoidance task was used to evaluate learning and memory in mice treated with igmesine. […] The step-through latency, that is, the latency spent to enter the dark compartment, and the number of vocalizations was recorded. […]

GFAP = test: ELISA of cortical GFAP, Aβ25-35 mouse model; assay type: in vivo; settings: Experiment 2, post-treatment, 1 mg/kg
Method: as §3, §4
(§7) Enzyme-linked immunosorbant assay (ELISA) assays: Contents in GFAP, Caspase 12, Amyloid-beta 1-40, Amyloid-beta 1-42, Total Tau, and pTau on Ser199 were analyzed by using commercial ELISA assay kit. • GFAP: Supplier: USCNK #Ref: SEA068Mu • Total Tau: Supplier: Novex #Ref: KMB7011 • pTau (S199): Supplier: Novex #Ref: KMB7041 • Amyloid beta 1-40: Supplier: Novex #Ref: KMB3481 • Amyloid beta 1-42: Supplier: Novex #Ref: KMB3441 • Caspase-12: Supplier: LSBio #Ref: LS-F11023 • BAX: Supplier: Euromedex#Ref: SEB343Mu • BCL2: Supplier: Euromedex #Ref: SEA778Mu […]

caspase 12 = test: ELISA of cortical caspase 12, Aβ25-35 mouse model; assay type: in vivo; settings: Experiment 2, post-treatment, 1 mg/kg
Method: as §3, §4, §7

Bax/Bcl-2 = test: ELISA of cortical Bax/Bcl-2 ratio, Aβ25-35 mouse model; assay type: in vivo; settings: Experiment 2, post-treatment, 1 mg/kg
Method: as §3, §4, §7

[3] = system: gerbil model of global cerebral ischemia; settings: cited from earlier work
[4] = Experiment 1, pre-treatment, 0.1, 0.3, 1 mg/kg i.p.
[5] = Experiment 2, post-treatment day 1 to day 6

CCC(C/C=C/c1ccccc1)(c1ccccc1)N(C)CC1CC1 (single isomer, unassigned; (+)) [igmesine, (+)-(E)-N-(cyclopropylmethyl)-N-methyl-3,6-diphenylhex-5-en-3-amine]
prevention of Aβ25-35-induced spontaneous alternation deficits ([1]; Experiment 1, i.p. 20 min before Aβ25-35, 0.1, 0.3, 1 mg/kg): dose-dependently prevented
prevention of Aβ25-35-induced spontaneous alternation deficits ([1]; Experiment 2, post-treatment i.p. day 1 to day 6): prevented the Aβ25-35-induced deficits at the highest doses tested
highest sub-active dose, spontaneous alternation ([1]; Experiment 3, i.p.): 0.1 mg/kg
prevention of passive avoidance deficits, escape latency [2, 4]: at the highest dose
prevention of passive avoidance deficits, step-through latency [2, 4]: significant prevention at the two highest dose tested
prevention of passive avoidance deficits, escape latency [2, 5]: significant prevention at the highest dose tested
prevention of passive avoidance deficits, step-through latency [2, 5]: significant prevention at the highest dose tested
cortical GFAP elevation (GFAP): fully normalized
cortical caspase 12 elevation (caspase 12): fully normalized
cortical Bax/Bcl-2 ratio elevation (Bax/Bcl-2): fully normalized
effective doses, neuroprotective effects [3]: 50 mg/kg and 75 mg/kg and 100 mg/kg
